For 22 molecules, IC50 results are on record in patent publication US20070155746A1, “NOVEL SUBSTITUTED PYRIDINYLOXY AND PYRIMIDINYLOXY AMIDES USEFUL AS INHIBITORS OF PROTEIN KINASES” (KALYPSYS, INC., priority 2005, published 2007).

What all share (assay type): biochemical
In experiment [1] the target is T1, human B-Raf protein kinase (Homo sapiens, UniProt P15056).
T1 construct: GST (N); purchased Upstate Inc. 14-530 (B-Raf); 14-420 (Mek1)
The experiment is described as follows: In vitro B-Raf/Mek1 composite kinase assay. As to the method:
In Vitro B-Raf/Mek1 Composite Kinase Assay
2.5 μl of B-Raf kinase buffer (20 mM MOPS [pH 7.2], 25 mM sodium glycerophosphate, 2 mM EGTA [pH 8.0], 1 mM sodium orthovanadate, 1 mM dithiothreitol, 10 mM MgCl2, 0.03% Brij-35, 0.3 mg/ml bovine serum albumin) containing lng of recombinant, N-terminal GST-tagged human B-Raf protein kinase (Δ1-415, Upstate Inc., cat. #14-530) is dispensed to wells of a 1536 multi-well white solid plate. 60 nl of 100× concentration of test compound in DMSO is dispensed to the well by passive pin transfer and incubated for 15 minutes at room temperature (approx. 22° C.). […] The assay plates are sealed and maintained in a humidified environment. After 2 hours, 2.5 μl of PKLight protein kinase assay reagent (Cambrex, cat. #LT07-501) is dispensed. After an additional 5 minute incubation at room temperature, luminescence activity is measured on a Molecular Devices Analyst multi-mode plate reader or other suitable plate reader. Kinase inhibition results in less ATP depletion, and therefore increased luminescence signal. Negative control activity is measured with DMSO lacking any test compound. The positive control is [N-(3-trifluoromethyl-4-chlorophenyl)-N′-(4-(2-methylcarbamoyl-pyridin-4-yl)oxyphenyl)urea], aka Bay 43-9006. Efficacy is measured as a percentage of positive control activity.

The target in the next experiment is T2, VEGFR2 kinase (Homo sapiens, UniProt P35968).
T2 construct: purchased Invitrogen Inc PV3660
T2 sequence (P35968 20-1356): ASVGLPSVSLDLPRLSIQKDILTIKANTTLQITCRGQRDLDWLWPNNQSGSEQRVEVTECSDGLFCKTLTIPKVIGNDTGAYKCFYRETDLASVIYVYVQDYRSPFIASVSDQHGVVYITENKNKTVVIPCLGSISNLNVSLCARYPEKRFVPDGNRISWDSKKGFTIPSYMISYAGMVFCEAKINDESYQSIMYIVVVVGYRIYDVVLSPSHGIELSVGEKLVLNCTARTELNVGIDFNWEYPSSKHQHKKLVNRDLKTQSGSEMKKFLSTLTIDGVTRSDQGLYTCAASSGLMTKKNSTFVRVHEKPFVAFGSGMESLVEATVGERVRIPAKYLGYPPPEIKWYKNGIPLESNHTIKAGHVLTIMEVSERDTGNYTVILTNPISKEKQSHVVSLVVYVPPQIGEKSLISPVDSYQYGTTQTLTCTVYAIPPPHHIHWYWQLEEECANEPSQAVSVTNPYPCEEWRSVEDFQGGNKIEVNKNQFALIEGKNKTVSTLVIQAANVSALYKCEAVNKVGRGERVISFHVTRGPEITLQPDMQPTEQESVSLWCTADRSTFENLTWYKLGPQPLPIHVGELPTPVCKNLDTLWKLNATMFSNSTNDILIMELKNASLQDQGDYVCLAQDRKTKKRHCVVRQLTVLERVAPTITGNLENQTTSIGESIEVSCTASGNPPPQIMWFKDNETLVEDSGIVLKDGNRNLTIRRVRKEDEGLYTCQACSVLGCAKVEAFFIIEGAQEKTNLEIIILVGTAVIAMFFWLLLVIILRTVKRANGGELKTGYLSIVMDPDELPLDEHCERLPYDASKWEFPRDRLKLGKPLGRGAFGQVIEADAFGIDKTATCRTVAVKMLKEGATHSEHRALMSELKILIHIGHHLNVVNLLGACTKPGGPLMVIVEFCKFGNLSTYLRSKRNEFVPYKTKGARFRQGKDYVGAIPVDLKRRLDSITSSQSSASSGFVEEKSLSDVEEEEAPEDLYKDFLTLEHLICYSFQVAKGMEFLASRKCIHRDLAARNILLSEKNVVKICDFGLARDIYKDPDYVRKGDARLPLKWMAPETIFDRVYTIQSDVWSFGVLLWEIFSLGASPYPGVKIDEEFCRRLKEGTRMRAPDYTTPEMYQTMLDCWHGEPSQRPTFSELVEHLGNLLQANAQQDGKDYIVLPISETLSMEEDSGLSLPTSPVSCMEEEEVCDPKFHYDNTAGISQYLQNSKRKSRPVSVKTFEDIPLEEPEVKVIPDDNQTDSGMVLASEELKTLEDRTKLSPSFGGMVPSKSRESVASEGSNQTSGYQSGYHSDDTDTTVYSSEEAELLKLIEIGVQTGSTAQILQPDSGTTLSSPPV
As to the kind of experiment: In vitro VEGFR2 kinase assay. As to the method:
(§1) In Vitro VEGFR2 and PDGFRP Kinase Assays
(§2) 2.5 μl of ADP Quest assay buffer (DiscoverX Inc., cat. #90-0071) containing 20 ng VEGFR2 kinase (Invitrogen Inc, cat. #PV3660) or 25 ng PDGFRβ kinase (Invitrogen Inc., cat. #P3082) is dispensed to wells of a 1536 multi-well, black solid plate. 60 nl of 100× concentration of test compound in DMSO is dispensed to the well by passive pin transfer and incubated for 10 minutes at room temperature (approx. 22° C.). 2.5 μl of ADP Quest assay buffer containing 0.25 μg of poly Glu:Tyr (4:1) substrate peptide (Upstate Inc., cat. #12-440) and 60 μM ATP is then dispensed and the kinase reaction allowed to incubate at 30° C. for 2 hours. The assay plates are sealed and maintained in a humidified environment. After the 2 hour incubation, 2 μl of ADP Quest assay reagent A, followed by 2 μl of assay reagent B, is added. After an additional 30 minute incubation at room temperature, fluorescence intensity is measured on a Molecular Devices Aquest multi-mode plate reader or other suitable plate reader (fluorescence excitation filter: 530/25 [Peak(nm)/FWHM passband(nm)]; dichroic beamsplitter: 561 nm longpass; fluorescence emission filter: 580/10 [Peak(nm)/FWHM passband(nm)]. The assay measures the conversion of a non-fluoresecent molecule to fluorescent resorufin, which correlates with kinase activity. Negative control activity is measured with DMSO lacking any test compound. The positive control is [N-(3-trifluoromethyl-4-chlorophenyl)-N′-(4-(2-methylcarbamoyl-pyridin-4-yl)oxyphenyl)urea], aka Bay 43-9006. Efficacy is measured as a percentage of positive control activity.

The next experiment addresses T3, PDGFRβ kinase (Homo sapiens, UniProt P09619).
T3 construct: purchased Invitrogen Inc. P3082
The experiment is described as follows: In vitro PDGFRβ kinase assay. The method, then:
as §1, §2

T3 sequence (P09619 33-1106): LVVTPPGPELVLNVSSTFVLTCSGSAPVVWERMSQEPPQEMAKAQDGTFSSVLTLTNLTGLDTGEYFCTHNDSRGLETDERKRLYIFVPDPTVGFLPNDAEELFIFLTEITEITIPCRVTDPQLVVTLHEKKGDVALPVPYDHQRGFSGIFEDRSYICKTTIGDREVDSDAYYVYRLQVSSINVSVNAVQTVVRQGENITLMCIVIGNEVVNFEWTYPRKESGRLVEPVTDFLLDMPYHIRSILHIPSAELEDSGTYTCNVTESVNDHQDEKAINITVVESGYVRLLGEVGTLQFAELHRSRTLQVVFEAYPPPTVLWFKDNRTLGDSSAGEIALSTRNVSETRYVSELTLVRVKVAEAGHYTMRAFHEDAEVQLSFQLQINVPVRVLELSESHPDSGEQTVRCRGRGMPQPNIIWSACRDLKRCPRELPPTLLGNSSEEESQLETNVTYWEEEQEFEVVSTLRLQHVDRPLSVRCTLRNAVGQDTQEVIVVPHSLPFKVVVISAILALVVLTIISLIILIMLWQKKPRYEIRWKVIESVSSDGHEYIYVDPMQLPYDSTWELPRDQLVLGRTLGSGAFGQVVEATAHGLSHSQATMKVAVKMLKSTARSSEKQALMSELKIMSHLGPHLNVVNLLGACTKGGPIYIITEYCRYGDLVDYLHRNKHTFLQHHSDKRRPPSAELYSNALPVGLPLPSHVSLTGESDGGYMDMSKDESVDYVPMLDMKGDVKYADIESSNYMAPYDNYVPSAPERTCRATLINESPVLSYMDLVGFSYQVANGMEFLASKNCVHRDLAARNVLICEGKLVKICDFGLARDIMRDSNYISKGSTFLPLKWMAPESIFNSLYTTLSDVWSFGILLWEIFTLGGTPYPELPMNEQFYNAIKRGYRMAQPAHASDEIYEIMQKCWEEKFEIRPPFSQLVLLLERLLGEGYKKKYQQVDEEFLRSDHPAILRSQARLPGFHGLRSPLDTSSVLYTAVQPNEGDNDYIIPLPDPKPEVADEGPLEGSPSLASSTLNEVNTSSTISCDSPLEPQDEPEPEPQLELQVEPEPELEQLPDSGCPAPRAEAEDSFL
T1 sequence (P15056 416-766): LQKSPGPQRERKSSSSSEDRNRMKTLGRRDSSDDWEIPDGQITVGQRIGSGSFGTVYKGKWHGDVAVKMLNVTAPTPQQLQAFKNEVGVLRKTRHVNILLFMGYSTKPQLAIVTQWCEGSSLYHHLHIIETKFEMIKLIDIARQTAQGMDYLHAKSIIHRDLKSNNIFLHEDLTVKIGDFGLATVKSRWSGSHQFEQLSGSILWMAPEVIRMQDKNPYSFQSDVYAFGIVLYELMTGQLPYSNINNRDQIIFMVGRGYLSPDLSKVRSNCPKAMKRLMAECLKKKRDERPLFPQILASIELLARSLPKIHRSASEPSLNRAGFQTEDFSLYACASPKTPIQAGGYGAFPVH

Turning to `Cn1cc(-c2cc(Oc3cccc(NC(=O)c4ccc(Cl)c(C(F)(F)F)c4)c3)ccn2)cn1` [Example 21, 4-Chloro-N-(3-(2-(1-methyl-1H-pyrazol-4-yl)pyridin-4-yloxy)phenyl)-3-(trifluoromethyl)benzamide], the concentration for half-maximal inhibition (IC50) (in experiment [1]; against VEGFR2 kinase; on PDGFRβ kinase) was over 10 µM each time.

For the molecule `O=C(Nc1cccc(Oc2ccnc(-c3nnco3)c2)c1)c1cccc(Oc2ccccc2)c1` [Example 4, N-(3-(2-(1,3,4-Oxadiazol-2-yl)pyridin-4-yloxy)phenyl)-3-phenoxybenzamide], the concentration for half-maximal inhibition (IC50) (usually the concentration needed to halve the response being measured) is over 10 µM in experiment [1], at most 10 µM against VEGFR2 kinase and at most 10 µM against PDGFRβ kinase.

As to `Cn1cc(-c2cc(Oc3cccc(NC(=O)c4cccc(-n5cnnc5)c4)c3)ccn2)cn1` [Example 38, N-(3-(2-(1-Methyl-1H-pyrazol-4-yl)pyridin-4-yloxy)phenyl)-3-(4H-1,2,4-triazol-4-yl)benzamide], the values for the concentration for half-maximal inhibition (IC50) (in experiment [1]; at VEGFR2 kinase; against PDGFRβ kinase) were at most 10 µM, at most 10 µM and over 10 µM, respectively.

For `CCCCOc1ccc(C(=O)Nc2cccc(Oc3ccnc(-c4cnn(C)c4)c3)c2)cc1` [Example 76, 4-Butoxy-N-(3-(2-(1-methyl-1H-pyrazol-4-yl)pyridin-4-yloxy)phenyl)benzamide], the figures for the IC50 (in experiment [1]; on VEGFR2 kinase; on PDGFRβ kinase) were at most 10 µM, at most 10 µM and over 10 µM, respectively.

Consider `CNC(=O)c1cc(Oc2cccc(NC(=O)c3ccc(OC)c(OC4CCCC4)c3)c2)ccn1` [Example 15, 4-(3-(3-(Cyclopentyloxy)-4-methoxybenzamido)phenoxy)-N-methylpicolinamide], for which the values for the 50% inhibitory concentration (IC50) (in experiment [1]; against VEGFR2 kinase; on PDGFRβ kinase) were over 10 µM, at most 10 µM and at most 10 µM, respectively.

As for `O=C(Nc1cccc(Oc2ccnc(-c3nnco3)c2)c1)c1cccc(N2CCOCC2)c1` [Example 12, 3-Morpholin-4-yl-N-[3-(2-[1,3,4]oxadiazol-2-yl-pyridin-4-yloxy)-phenyl]-benzamide], the IC50 in experiment [1] was over 10 µM; at VEGFR2 kinase, at most 10 µM; against PDGFRβ kinase, at most 10 µM.

For `Cn1cc(-c2cc(Oc3cccc(NC(=O)c4ccc5c(c4)CCO5)c3)ccn2)cn1` [Example 67, N-(3-(2-(1-Methyl-1H-pyrazol-4-yl)pyridin-4-yloxy)phenyl)-2,3-dihydrobenzofuran-5-carboxamide], the IC50 (in experiment [1]; against VEGFR2 kinase; at PDGFRβ kinase) was over 10 µM in each case.

Take `Cn1cc(-c2cc(Oc3cccc(NC(=O)c4cccc5ccccc45)c3)ccn2)cn1` [Example 52, N-(3-(2-(1-Methyl-1H-pyrazol-4-yl)pyridin-4-yloxy)phenyl)-1-naphthamide]: the concentration for half-maximal inhibition (IC50) (in experiment [1]; on VEGFR2 kinase; at PDGFRβ kinase) was over 10 µM throughout.

Regarding `O=C(Nc1cccc(Oc2ccnc(-c3nnco3)c2)c1)c1ccc2c(c1)OCCCO2` [Example 6, N-(3-(2-(1,3,4-Oxadiazol-2-yl)pyridin-4-yloxy)phenyl)-3,4-dihydro-2H-benzo[b][1,4]dioxepine-7-carboxamide], the IC50 in experiment [1] is over 10 µM; at VEGFR2 kinase it was at most 10 µM; against PDGFRβ kinase, over 10 µM.

Turning to `CCOc1ccc(C(=O)Nc2cccc(Oc3ccnc(-c4nnco4)c3)c2)cc1OCC` [Example 8, N-(3-(2-(1,3,4-Oxadiazol-2-yl)pyridin-4-yloxy)phenyl)-3,4-diethoxybenzamide], the 50% inhibitory concentration (IC50) is over 10 µM in experiment [1], at most 10 µM at VEGFR2 kinase and over 10 µM against PDGFRβ kinase.

Take `CCCOc1ccc(C(=O)Nc2cccc(Oc3ccnc(-c4cnn(C)c4)c3)c2)cc1` [Example 74, N-(3-(2-(1-Methyl-1H-pyrazol-4-yl)pyridin-4-yloxy)phenyl)-4-propoxybenzamide]: the concentration for half-maximal inhibition (IC50) in experiment [1] was at most 10 µM; against VEGFR2 kinase it was over 10 µM; against PDGFRβ kinase, over 10 µM.

As for `Cn1cc(-c2nccc(Oc3cccc(NC(=O)c4ccc(OC(F)(F)F)cc4)c3)n2)cn1` [Example 27, N-{3-[2-(1-Methyl-1H-pyrazol-4-yl)-pyrimidin-4-yloxy]-phenyl}-4-trifluoromethoxy-benzamide], the IC50 (in experiment [1]; on VEGFR2 kinase; on PDGFRβ kinase) was over 10 µM throughout.

In the case of `Cn1cc(-c2cc(Oc3cccc(NC(=O)c4ccc5c(c4)OCO5)c3)ccn2)cn1` [Example 61, N-(3-(2-(1-Methyl-1H-pyrazol-4-yl)pyridin-4-yloxy)phenyl)benzo[d][1,3]dioxole-5-carboxamide], the values for the IC50 (in experiment [1]; on VEGFR2 kinase; against PDGFRβ kinase) were at most 10 µM, over 10 µM and over 10 µM, respectively.

Take `Cn1cc(-c2cc(Oc3cccc(NC(=O)c4ccc5[nH]nnc5c4)c3)ccn2)cn1` [Example 65, N-(3-(2-(1-Methyl-1H-pyrazol-4-yl)pyridin-4-yloxy)phenyl)-1H-benzo[d][1,2,3]triazole-5-carboxamide]: the figures for the concentration for half-maximal inhibition (IC50) (in experiment [1]; against VEGFR2 kinase; at PDGFRβ kinase) were at most 10 µM, at most 10 µM and over 10 µM, respectively.

Consider `CC(C)Oc1ccc(C(=O)Nc2cccc(Oc3ccnc(-c4cnn(C)c4)c3)c2)cc1` [Example 75, 4-Isopropoxy-N-(3-(2-(1-methyl-1H-pyrazol-4-yl)pyridin-4-yloxy)phenyl)benzamide], for which the IC50 is at most 10 µM in experiment [1], over 10 µM at VEGFR2 kinase and over 10 µM against PDGFRβ kinase.

Consider `CCOc1cc(OCC)cc(C(=O)Nc2cccc(Oc3ccnc(-c4nnco4)c3)c2)c1` [Example 7, N-(3-(2-(1,3,4-Oxadiazol-2-yl)pyridin-4-yloxy)phenyl)-3,5-diethoxybenzamide], for which the half-inhibitory concentration (IC50) (in experiment [1]; against VEGFR2 kinase; against PDGFRβ kinase) was over 10 µM throughout.

For `COc1ccc(C(=O)Nc2cccc(Oc3ccnc(-c4nnco4)c3)c2)cc1OC1CCCC1` [Example 9, N-(3-(2-(1,3,4-Oxadiazol-2-yl)pyridin-4-yloxy)phenyl)-3-(cyclopentyloxy)-4-methoxybenzamide], the 50% inhibitory concentration (IC50) in experiment [1] was over 10 µM; at VEGFR2 kinase, at most 10 µM; on PDGFRβ kinase, at most 10 µM.

Turning to `Cn1cc(-c2cc(Oc3cccc(NC(=O)c4ccc(Cl)c(C(F)(F)F)c4)c3)ncn2)cn1` [Example 25, 4-Chloro-N-(3-(6-(1-methyl-1H-pyrazol-4-yl)pyrimidin-4-yloxy)phenyl)-3-(trifluoromethyl)benzamide], the 50% inhibitory concentration (IC50) (in experiment [1]; against VEGFR2 kinase; against PDGFRβ kinase) was over 10 µM in each case.

In the case of `Cn1cc(-c2cc(Oc3cccc(NC(=O)c4cccc5cc[nH]c45)c3)ccn2)cn1` [Example 71, N-(3-(2-(1-Methyl-1H-pyrazol-4-yl)pyridin-4-yloxy)phenyl)-1H-indole-7-carboxamide], the IC50 was at most 10 µM in experiment [1], over 10 µM against VEGFR2 kinase and over 10 µM on PDGFRβ kinase.

In the case of `Cn1cc(-c2cc(Oc3cccc(NC(=O)c4ccc5c(c4)C(=O)OC5=O)c3)ccn2)cn1` [Example 63, N-(3-(2-(1-Methyl-1H-pyrazol-4-yl)pyridin-4-yloxy)phenyl)-1,3-dioxo-1,3-dihydroisobenzofuran-5-carboxamide], the half-maximal inhibitory concentration (IC50) in experiment [1] is at most 10 µM; at VEGFR2 kinase, over 10 µM; against PDGFRβ kinase, at most 10 µM.

With `Cn1cc(-c2cc(Oc3cccc(NC(=O)c4cccc(C(=O)c5ccccc5)c4)c3)ccn2)cn1` [Example 50, 3-Benzoyl-N-(3-(2-(1-methyl-1H-pyrazol-4-yl)pyridin-4-yloxy)phenyl)benzamide], the values for the half-inhibitory concentration (IC50) (in experiment [1]; against VEGFR2 kinase; on PDGFRβ kinase) were over 10 µM, at most 10 µM and over 10 µM, respectively.

`CCOc1cc(OCC)cc(C(=O)Nc2ccc(Oc3ccnc(-c4cnn(C)c4)c3)cc2)c1` [Example 20, 3,5-Diethoxy-N-(4-(2-(1-methyl-1H-pyrazol-4-yl)pyridin-4-yloxy)phenyl)benzamide]: the concentration for half-maximal inhibition (IC50) (in experiment [1]; at VEGFR2 kinase; at PDGFRβ kinase) was at most 10 µM in each case.
